Reference: publication PMC6153549 (Investigational New Drugs, 2018)
“Also recorded” adds a separate entry of the source. Like-named read-outs stand apart in the source and are kept apart here.

Tests used:
[1] = Plasma pharmacokinetics of lapatinib in rats (HPLC-MS/MS, non-compartmental); type: in vivo, Wistar rats; conditions: for AUC0-t / AUC(0-inf) / Cmax / Vd/F / k el / MRT last / tmax / AUMC0-t / Cl/F: plasma; for MRT last: read-out: MRT0-t
Method: The experimental protocol for this study was reviewed and approved by the Local Ethics Committee. All procedures were performed in accordance with the European Union regulations concerning the handling and use of laboratory animals. The study was based on the required minimum number of animals and observation time in order to obtain consistent data. […] The animals were allowed to acclimatise for a week before the beginning of the experiments. The rats were divided into three groups. […] In order to make sure that the animals received the entire dose of the drug, 1 mL of DMSO was then administered to rinse the probe. 80 μL of blood was collected from each rat by cutting off a piece of his tail. […] The blood samples were transferred into heparinised tubes and they were centrifuged at 2880 g for 10 min at 4 °C.
Chromatographic separation was performed on a Kinetex C18 column (50 × 4.6 mm, 2.6 μm, Phenomenex, Torrance, CA, USA). The column temperature and injection volume were set at 35 °C and 10 μL, respectively. The mobile phase comprised 0.1% formic acid in water with 5 mM ammonium formate (eluent A) and acetonitrile with 10% phase A (eluent B).
An aliquot of the rat plasma (20 μL) was mixed with 50 μL of IS solution (100 ng/mL) and 930 μL of methanol and then vortexed for 30 s. As a result, a total dilution factor of 50 was obtained. After centrifugation at 10,000 g (10 min), the supernatant was transferred into amber glass HPLC vials. The validation was performed according to the guidelines of EMA concerning validation of bioanalytical methods.
The pharmacokinetic parameters were estimated with the non-compartmental method, using Phoenix® WinNonlin® 7.0 software (Certara L.P.). kel – elimination rate constant; AUC0-t – area under the plasma concentration-time curve from zero to the time of the last measurable concentration; AUC0-∞ – area under the plasma concentration-time curve from zero to infinity; t0.5 – elimination half-life; Cl/F – clearance; Vd/F – volume of distribution; Cmax – maximum plasma concentration; tmax – time necessary to reach the maximum concentration; MRT0-t – mean residence time; AUMC0-t – area under the first moment curve.

[2] = cited from earlier work
UGTs = conditions: in vitro, human liver microsomes; cited from earlier work
UGT1A1 = test system: UGT1A1; set-up: method as in PMID 26642944; conditions: cited from earlier work
UGT1A7 = test system: UGT1A7; set-up: method as in PMID 26642944; conditions: cited from earlier work
UGT1A4 = test system: UGT1A4; set-up: method as in PMID 26642944; conditions: cited from earlier work
[3] = male, Wistar, rat, po, 100 mg/kg, rats, lapatinib 100 mg/kg p.o. + paracetamol 100 mg/kg p.o. (IL + PA), M ± SD
[4] = male, Wistar, rat, po, 100 mg/kg, rats, lapatinib 100 mg/kg p.o. alone (IIL), M ± SD
[5] = rats, lapatinib 100 mg/kg p.o. + paracetamol 100 mg/kg p.o. (IL + PA), M ± SD
[6] = rats, lapatinib 100 mg/kg p.o. alone (IIL), M ± SD
[7] = patients treated with lapatinib

## CS(=O)(=O)CCNCc1ccc(-c2ccc3ncnc(Nc4ccc(OCc5cccc(F)c5)c(Cl)c4)c3c2)o1 [lapatinib, Lapatinib]
[1]; [3]
  AUC0-t: 20700 ± 8270 ng·h/mL
  AUC(0-inf): 39500 ± 24000 ng·h/mL
  Cmax: 2240 ± 585 ng/mL
  Vd/F: 17.5 ± 2.55 L
  k el: 1.94e-05 s⁻¹
  MRT last: 7.28 ± 3.15 h
[1]; [4]
  AUC0-t: 6080 ± 3930 ng·h/mL
  AUC(0-inf): 8040 ± 4750 ng·h/mL
  Cmax: 787 ± 213 ng/mL
  Vd/F: 57.2 ± 23.3 L
  k el: 2.5e-05 s⁻¹
  MRT last: 5.77 ± 1.95 h
[1]; male, Wistar, rat, po, 100 mg/kg, read-out: tmax
  tmax: 2.42 ± 1.11 h
[1]; rats, co-administration with paracetamol (IL + PA) vs lapatinib alone (IIL)
  increase in Cmax: 184%
[1]; [5]
  AUMC0-t: 620.79 ± 1170.66 (188.6) mg × h^2/L
  Cl/F: 2.81 ± 1.20 (42.8) L/h
  tmax: 2.50 ± 0.84 (33.5) h
[1]; [6]
  AUMC0-t: 40.79 ± 37.98 (93.1) mg × h^2/L
  Cl/F: 11.46 ± 6.76 (59.0) L/h
[2]; patients subjected to lapatinib therapy
  patients with isolated ALT increase more than 3 times ULN: 3–5%
[2]; [7]
  patients in whom ULN was exceeded 5–20 times: 1.6%
  patients with hyperbilirubinemia and severe liver damage: 0.2%
UGTs
  inhibition of paracetamol glucuronidation: slight inhibitory effect; also recorded: weak inhibitor
UGT1A1
  UGT1A1 inhibition: strong competitive inhibitor
UGT1A7
  UGT1A7 inhibition type: non-competitive
UGT1A4
  UGT1A4 inhibition type: mixed
